pKd: −log10 of the molar value.
Assays:
Assay in all cases: ITC
Format in all cases: binding
IGP1^ECD [1] = target: IGP1^ECD (Arabidopsis thaliana, UniProt F4I3K3, C591D/C592D); conditions: 10 mM Bis-Tris pH 6.0, 100 mM NaCl, 25 °C
IGP1^ECD [2] = target: IGP1^ECD (Arabidopsis thaliana, UniProt F4I3K3, C591A/C592A); conditions: 10 mM Bis-Tris pH 6.0, 100 mM NaCl, 25 °C
IGP1^ECD [3] = target: IGP1^ECD (Arabidopsis thaliana, UniProt F4I3K3, W220A); conditions: 10 mM Bis-Tris pH 6.0, 100 mM NaCl, 25 °C
IGP1^ECD [4] = target: IGP1^ECD (Arabidopsis thaliana, UniProt F4I3K3); conditions: 10 mM Bis-Tris pH 6.0, 100 mM NaCl, 25 °C; LRR3-5 groove; 1:1 complex in crystal

| Structure (SMILES) | pKd (IGP1^ECD [1]) | pKd (IGP1^ECD [2]) | pKd (IGP1^ECD [3]) | pKd (IGP1^ECD [4]) |
| --- | --- | --- | --- | --- |
| OC[C@H]1O[C@@H](O[C@H]2[C@H](O)[C@@H](O)[C@H](O[C@H]3[C@H](O)[C@@H](O)[C@H](O[C@H]4[C@H](O)[C@@H](O)C(O)O[C@@H]4CO)O[C@@H]3CO)O[C@@H]2CO)[C@H](O)[C@@H](O)[C@@H]1O (stereo partly shown) [CEL4, cellotetraose] | ~4.75 | ~5.65 | ~4.73 | – |
| OC[C@H]1O[C@@H](O[C@H]2[C@H](O)[C@@H](O)[C@H](O[C@H]3[C@H](O)[C@@H](O)C(O)O[C@@H]3CO)O[C@@H]2CO)[C@H](O)[C@@H](O)[C@@H]1O (stereo partly shown) [CEL3, cellotriose] | – | – | – | ~5.79 |

Reference: publication doi:10.1101/2025.10.05.680433v1 (biorxiv, 2025)
